According to patent US6632921B1, “Seryl-lysyl-based peptide and peptidomimetic inhibitors of N-myristoyl transferase as anti-infective agents” (G. D Searle & Co, priority 1995, dated 2003):

Key:
[1] = tested on: a variety of fungal species, including C. albicans; settings: Sabouraud dextrose agar; series of n-alkoxyacetic acids; cited from earlier work
Candida albicans NMT = biological target: T1, Candida albicans NMT (Candida albicans, UniProt P30418); test: NMT enzyme inhibition assay (radiochemical HPLC end-point), Candida NMT; format: biochemical
T1 construct: made in house; host or cells: E. coli
T1 sequence (P30418 1-451): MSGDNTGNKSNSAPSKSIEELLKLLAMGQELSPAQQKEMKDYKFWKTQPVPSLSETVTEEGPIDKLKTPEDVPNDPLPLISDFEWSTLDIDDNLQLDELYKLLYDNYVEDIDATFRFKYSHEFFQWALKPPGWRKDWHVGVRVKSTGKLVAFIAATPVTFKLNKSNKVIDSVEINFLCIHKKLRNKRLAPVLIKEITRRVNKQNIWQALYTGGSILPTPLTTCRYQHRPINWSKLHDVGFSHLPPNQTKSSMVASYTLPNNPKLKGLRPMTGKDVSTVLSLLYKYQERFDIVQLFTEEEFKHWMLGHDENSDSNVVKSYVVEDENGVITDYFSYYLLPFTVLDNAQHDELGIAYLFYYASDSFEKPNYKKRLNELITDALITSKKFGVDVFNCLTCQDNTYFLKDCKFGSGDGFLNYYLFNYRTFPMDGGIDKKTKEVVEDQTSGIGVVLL
Description: (§1) Recombinant Candida albicans and human NMTs were expressed and purified from E. coli using previously described protocols. [D. A. Towler et al, Proc. Natl. Acad. Sci. USA, 84, 2707-2712 (1987); R. C. Weigand et al, J. Biol. Chem., 267, 8591-8598 (1992); R. J. Duronio et al, Proc. Natl. Acad. Sci. USA, 89, 4129-4133 (1992)] The ability of compounds to inhibit Candida NMT enzymatic activity was assessed using a radiochemical HPLC end-point assay as described previously for Saccharomyces cerevisiae and human NMTs. [D. Towler et al, Proc. Natl. Acad. Sci. USA, 83, 2812-2816 (1986); W. J. Rocque et al, J. Biol. Chem., 268, 9964-9971 (1991)] The donor substrate [^3H]myristoyl-coenzyme A was enzymatically synthesized from [^3H]myristic acid (50 Ci/mmol, Amersham, Arlington Heights, Ill.) and coenzyme A (Fluka Chemical Corp., Ronkonkoma, N.Y.), and purified as described previously. [W. J. Rocque et al, J. Biol. Chem., 268, 9964-9971 (1991)] The peptide acceptor substrate GNAASARR-NH2 was prepared by solid-phase peptide synthesis using the t-Boc amino acid methodology, followed by HF treatment and reverse-phase HPLC purification. Inhibitor stock solutions were prepared at 22 mM in DMSO; the final concentration of DMSO in each assay was 0.5% (v/v). Inhibition assays were carried out by combining variable amounts of inhibitor or buffer with 0.11 mmoles of [^3H]myristoyl-coenzyme A (1 μCi, 9.09 Ci/mmol) and 2.2 nmoles of GNAASARR-NH2 in a total volume of 60 μL of 0.2 M N-[2-hydroxy-ethyl]piperazine-N′-[2-ethanesulfonic acid], pH 7.4, 2 mM DL-dithiothreitol, 0.2 mM ethylene glycol-bis-(β-aminoethyl ether) N,N,N′,N′-tetraacetic acid, and initiating the reaction by the addition of 50 μL of a Candida NMT solution (7-12 ng/50 μL). Assays with human NMT were identical except that they used 60-75 ng/50 μL of enzyme solution and 0.22 nmoles of GNAASARR-NH2. The reaction was quenched after 10 minutes at 24° C. by the addition of ice-cold MeOH, and the reaction products were separated and measured using C4 reverse-phase HPLC (Vydac 214TP10415; Separations Group, Hesperia, Calif.) and in-line scintillation counting using a Radiomatic A250 (Packard Instruments, Downers Grove, Ill.) and Ecolite(+) (ICN Biomedical, Costa Mesa, Calif.) as the scintillant. Selectivity was determined by calculating the ratio of the IC50 against human NMT to the IC50 against C. albicans NMT.

human NMT = biological target: T2, human NMT (Homo sapiens, UniProt P30419); test: NMT enzyme inhibition assay (radiochemical HPLC end-point), human NMT; format: biochemical; settings: Table V
T2 construct: made in house; host or cells: E. coli
T2 sequence (P30419 1-416 isoform P30419-2): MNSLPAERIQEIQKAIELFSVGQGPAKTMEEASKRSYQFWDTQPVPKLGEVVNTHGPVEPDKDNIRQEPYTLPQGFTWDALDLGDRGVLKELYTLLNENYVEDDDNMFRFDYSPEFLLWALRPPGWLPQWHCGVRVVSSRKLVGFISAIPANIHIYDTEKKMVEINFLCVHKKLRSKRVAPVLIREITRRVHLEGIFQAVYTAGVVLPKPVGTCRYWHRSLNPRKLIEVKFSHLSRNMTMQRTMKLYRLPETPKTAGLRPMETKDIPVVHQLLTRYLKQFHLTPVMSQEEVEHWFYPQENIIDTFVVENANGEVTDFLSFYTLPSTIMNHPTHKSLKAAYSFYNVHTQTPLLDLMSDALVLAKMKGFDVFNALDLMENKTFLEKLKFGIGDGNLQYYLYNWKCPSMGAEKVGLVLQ
Description: as §1, with “Inhibition assays were carried out by combining variable amounts of inhibitor or buffer with 0.11 mmoles of [^3H]myristoyl-coenzyme A (1 μCi, 9.09 Ci/mmol) and 2.2 nmoles of GNAASARR-NH2 in a total volume of 60 μL of 0.2 M N-[2-hydroxy-ethyl]piperazine-N′-[2-ethanesulfonic acid], pH 7.4, 2 mM DL-dithiothreitol, 0.2 mM ethylene glycol-bis-(β-aminoethyl ether) N,N,N′,N′-tetraacetic acid, and initiating the reaction by the addition of 50 μL of a Candida NMT solution (7-12 ng/50 μL). Assays with human NMT were identical except that they used 60-75 ng/50 μL of enzyme solution and 0.22 nmoles of GNAASARR-NH2.” left out

[2] = tested on: Candida albicans, strain B311; test: Antifungal susceptibility testing, microdilution broth, pH 5.4/30° C./YNB; format: cell-based; settings: B311, 24 hours, Table V (values agree with pH 5.4 assay), read-out: caEC50 24 hours
Description: Antifungal Screens were set up initially against Candida albicans, strain B311, and Cryotococcus neoformans, strain L210425. Both pathogens, (originally from the stock culture collection, Medical mycology research center, Washington university-Barnes hospital), were obtained from Dr.Kobayashi, Prof.of infectious diseases, Washington University, St.Louis, Mo.
All cultures are maintained at 30° C. on Sabouraud's dextrose agar slants and subcultured at monthly intervals to fresh medium. All inocula for susceptibility testing are prepared in yeast nitogen base(YNB, Difco) broth.
A loopful of growth from Sabouraud dextrose agar slant is inoculated into 4 ml of YNB broth media and incubated at 30° C. overnight (18-24 hrs) with constant agitation (Gyratory Shaker, New Brunswick Scientific). Prior to setting up susceptibility testing, the organisms are counted in a hemocytometer, and diluted as needed into assay media.
1) (Assay at DH 5.4/30° C. Incubation/YNB Media).
Antifungal assays were carried out initially by a modification of the method published by Jones, et. al; (1), and communicated to Searle by Dr. Kobayashi, Washington University. [R. N. Jones et al, Manual of Clinical Microbiology, 4th ed., (1985)]
The antifungal susceptibility testing consists of a microdilution broth procedure performed in 96 well microtiter plates (Costar, cat#3799). Briefly, test compounds from a 20 mM stock solution in DMSO are diluted into sterile, deionized water (final DMSO concentration not exceeding 1%), to yield 2× the desired concentration (100 uM, 10 uM and 1 uM for an initial screen, or a selected concentration range in serial 2 fold dilutions for EC50 determination). One hundred microliters (100 ul) of each concentration is dispensed into triplicate wells of a 96 well microtiter plate. Appropriate dilutions of a suspension of C.albicans (1×10^6 cells/ml) in 2× YNB is distributed into each of the wells, including growth control wells containing no test compound as well as control wells with 0.5% DMSO. Amphotericin B at 0.05, 1 and 5 ug/ml is included in each assay plate as a positive control. The plates are incubated at 30° C. and cell growth is scored by reading the absorbance at 590 nm on an Elisa plate reader(Dynatech, MR.5000).

HIV-1 = settings: acutely and chronically infected human T-lymphocyte cell lines, doses which do not cause cellular toxicity; cited from earlier work

For CCCCCCCCCCCOCC(=O)O [3-oxatetradecanoic acid], the “effects on the growth of fungal species” value [1] is given as “inhibiting growth”.
For CCCCCCCCOCC(=O)O [3-oxaundecanoic acid], the “effects on the growth of fungal species” value [1] is given as “broadest spectrum and highest potency”.
With Cc1nccn1CCCCc1ccc(C(C)C(=O)N[C@@H](CO)C(=O)N[C@@H](CCCCN)C(=O)N[C@@H](CC2CCCCC2)C(=O)O)cc1 (mixture of isomers) [Example 1, L-Alanine, 3-cyclohexyl-N-[N^2-[N-[2-[4-[4-(2-methyl-1H-imidazol-1-yl)butyl]phenyl]oxopropyl]-L-seryl]-L-lysyl]-, (±), bis-trifluoroacetate] the IC50 (Candida albicans NMT; Table V, read-out: IC50 caNMT) was 400 nM, the Selectivity (Candida albicans NMT; ratio of IC50 against human NMT to IC50 against C. albicans NMT) was 2200 and the IC50 (human NMT) was 850 µM. For the same compound, the EC50 [2] was 33 µM.
For COCCCCCCCCCCCC(=O)O [13-oxatetradecanoic acid], the “inhibition of HIV-1 replication” value (HIV-1) is listed as “inhibits HIV-1 replication”.
